The record followed here is US8476264B2, “N-(3-(2-amino-6,6-difluoro-4,4A,5,6,7,7A-hexahydro-cyclopenta[E][1,3]oxazin-4-yl)-phenylamides as BACE1 inhibitors” (Hoffmann-La Roche Inc., priority 2011, dated 2013).

The target in one data set is T1, BACE1 (Homo sapiens, UniProt P56817).
T1 construct: Human HEK293 cells which are stably transfected with a vector expressing a cDNA of the human APP wt gene (APP695); endogenous in cells; host or cells: HEK293 stably transfected with human APP695 wt
Nature of the data set: Cellular Aβ-lowering assay (Aβ40 ELISA). The class given is cell-based. To be noted: HEK293 cells stably expressing human APP wt (APP695); Aβ40 in supernatant after 18-20 hrs; read-out: BACE1 cell act. Aβ40 IC50. The method in brief:
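Secreted Aβ40 in the supernatant was measured by sandwich ELISA (C-terminal Aβ40 capture, HRP-4G8 detection, 450 nm) against an Aβ peptide standard curve.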
In general terms: In an ELISA, binding on a coated surface is turned into a signal by an enzyme label.

Data set [1] addresses T2, P-gp (P-glycoprotein, human MDR1) (Homo sapiens, UniProt P08183).
T2 construct: host or cells: LLC-PK1 (porcine kidney epithelial) cells, L-MDR1
Nature of the data set: P-gp (P-glycoprotein) assay, bidirectional transcellular transport in LLC-PK1 and L-MDR1 cells. To be noted: ER = PappBA/PappAB, read-out: P-gp human, efflux ratio: substrate category. The format is in vitro ADME. The procedure:
P-gp (P-glycoprotein) Assay Cell Lines Used for Transport Experiments
The LLC-PK1 cell line (ATCC #CL-101) is a porcine kidney epithelial cell line. The MDR1 (Human multidrug resistance protein 1) transfected cell lines were obtained from Dr. A. Schinkel, The Netherlands Cancer Institute (Amsterdam, The Netherlands). All cell lines were cultured on permeable inserts (96-insert plates Millipore, 0.11 cm^2 area, pore size 0.4 μm) at 0.73*10^6 cells/ml. Transport measurements were performed at day 4 after seeding. Tightness of the cell monolayer was controlled via the permeability of the extracellular marker lucifer yellow (10 μM).
In Vitro Transport Experiments
Bidirectional transcellular transport using LLC-PK1 and L-MDR1 LLC-PK1 cells exogenously expressing the human MDR1)
The experiments were performed on a TECAN automated liquid handling system. Briefly, medium was removed from all compartments and the medium of receiver side was replaced with culture medium. The trans-cellular transport measurements were initiated by adding the substrate together with extracellular marker lucifer yellow to the donor side. Inhibitors were added to both sides (1 μM elacridar). Transport experiments were performed both in the basolateral-to-apical and apical-to-basolateral directions with 3 wells each. The plates were incubated at 37° C. and 5% CO2 in a Liconic incubator. Samples were taken from the donor and the opposite (acceptor) side after 2 hours incubation. Concentrations of substrate in both compartments were determined by scintillation counting (digoxin) or by LC-MS/MS. The extracellular marker (lucifer yellow) was quantified using a spectrafluor plus reader at 430/535 nm (Ex/Em). In each experiment 3 different inserts were used for each condition and a mean was calculated.
Bidirectional transcellular transport using LLC-PK1 and L-MDR1 cells
For the transcellular transport, the following equation was used for data evaluation: […]
Where Papp, A, C0, and dQ/dt represent the apparent permeability, the filter surface area, the initial concentration, and the amount transported per time period, respectively.
Transport efflux ratios (ER) were calculated as follows: […]
Where PappBA is the permeability value in the basolateral-to-apical direction, and PappAB the permeability value in the apical-to-basolateral direction. Papp were not corrected for flux of the extracellular marker lucifer yellow, which was used to assess the quality of the cell monolayers.

Data set [2] can be described thus: Detection of glutathione conjugates. Details: key: NF: in vitro no significant adduct formation relative to control. To be noted: in vitro, relative to control. The format is in vitro ADME, human. The source says: Detection of Glutathione Conjugates
The assay conditions for the detection of glutathione conjugates follow the procedure described by C. M. Dieckhaus et al.

The nature of another data set: in vivo effect. The conditions noted are these: % of control @ 30 mg/kg p.o.
The next data set has as its target T3, CYP3A4 (Homo sapiens, UniProt P08684).
T3 construct: 0.2 mg/ml pooled human liver microsomes; from tissue; host or cells: pooled human liver microsomes
As to the kind of experiment: CYP inhibition assay, CYP3A4. The format is in vitro ADME. The conditions noted are these: human liver microsomes, midazolam 1' hydroxylase; read-out: CYP IC50 3A4. The protocol: Inhibition of cytochromes P450 (CYPs) 2C9, 2D6 and 3A4 was assessed using human liver microsomes and CYP-selective substrate metabolism reactions. 50 μl incubations were made up containing (finally) 0.2 mg/ml pooled human liver microsomes, 5 μM substrate (diclofenac for CYP2C9 [4′ hydroxylase], dextromethorphan for CYP2D6 [O-demethylase] or midazolam for CYP3A4 [1′ hydroxylase]), 0.25 μL DMSO containing test inhibitor and NADPH regenerating system. Test inhibitor concentrations of 50, 16.7, 5.6, 1.9, 0.6 and 0.2 μM were assessed in singlicate. Incubations were pre-warmed to 37° C. for 10 minutes before initiation by addition of NADPH regenerating system. Incubations were quenched after 5 minutes (20 minutes for dextromethorphan) by addition of 50 μl cold acetonitrile containing 20 ng/ml 4-OH-diclofenac-13C6, 20 ng/mL dextrorphan-D3 and 20 ng/mL 1-OH-midazolam-D4. Quenched incubates were stored at −20° C. for at least 1 hour before centrifugation (20,000×g, 20 minutes). Supernatants were removed and diluted 1:1 with water prior to analysis using a RapidFire sample injector system and API4000 mass spectrometer. Peak areas for substrate, metabolite and stable-labelled metabolite standard were determined using MS/MS. The peak area ratios between the metabolite generated by the enzymatic reaction and the internal standard were used in subsequent calculations. The percentage of (DMSO) control activity was calculated for each incubate and IC50 values estimated by non-linear regression. Sulfaphenazole, quinidine or ketoconazole were tested in each CYP2C9, CYP2D6 or CYP3A4 inhibition experiment, respectively, to ensure assay sensitivity and reproducibility. (Validated assays for human cytochrome P450 activities, R. L. Walsky and R. S. Obach, Drug Metabolism and Disposition 32: 647-660, 2004. and S. Fowler and H. Zhang, The AAPS Journal, Vol. 10, No. 2, 410-424, 2008.)

T3 sequence (P08684 whole entry): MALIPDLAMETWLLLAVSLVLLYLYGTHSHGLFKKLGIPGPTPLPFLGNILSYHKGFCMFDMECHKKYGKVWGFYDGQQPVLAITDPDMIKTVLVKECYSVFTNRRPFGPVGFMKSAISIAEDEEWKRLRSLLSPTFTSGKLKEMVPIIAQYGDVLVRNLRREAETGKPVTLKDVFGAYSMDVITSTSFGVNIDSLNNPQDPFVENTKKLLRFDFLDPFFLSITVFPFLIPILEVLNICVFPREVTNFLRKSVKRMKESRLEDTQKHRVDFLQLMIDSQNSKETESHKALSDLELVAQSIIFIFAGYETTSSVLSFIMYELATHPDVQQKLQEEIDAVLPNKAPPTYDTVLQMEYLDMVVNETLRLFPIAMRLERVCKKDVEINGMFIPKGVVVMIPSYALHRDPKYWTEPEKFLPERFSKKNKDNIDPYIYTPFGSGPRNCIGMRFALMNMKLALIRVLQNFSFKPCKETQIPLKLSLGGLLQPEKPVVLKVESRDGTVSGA
T1 sequence (P56817 46-501): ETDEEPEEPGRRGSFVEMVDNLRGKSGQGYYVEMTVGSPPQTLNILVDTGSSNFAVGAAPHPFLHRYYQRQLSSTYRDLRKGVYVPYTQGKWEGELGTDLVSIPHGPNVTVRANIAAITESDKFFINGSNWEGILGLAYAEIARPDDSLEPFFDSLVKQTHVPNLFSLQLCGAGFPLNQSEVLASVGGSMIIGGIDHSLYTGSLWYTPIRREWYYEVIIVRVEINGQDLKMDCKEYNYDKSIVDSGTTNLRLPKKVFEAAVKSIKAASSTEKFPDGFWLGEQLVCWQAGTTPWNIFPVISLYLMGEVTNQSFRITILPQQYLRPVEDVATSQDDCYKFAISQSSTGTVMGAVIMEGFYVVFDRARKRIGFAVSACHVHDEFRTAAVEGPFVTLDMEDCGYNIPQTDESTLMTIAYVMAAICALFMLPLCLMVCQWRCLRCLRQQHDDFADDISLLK
T2 sequence (P08183 whole entry): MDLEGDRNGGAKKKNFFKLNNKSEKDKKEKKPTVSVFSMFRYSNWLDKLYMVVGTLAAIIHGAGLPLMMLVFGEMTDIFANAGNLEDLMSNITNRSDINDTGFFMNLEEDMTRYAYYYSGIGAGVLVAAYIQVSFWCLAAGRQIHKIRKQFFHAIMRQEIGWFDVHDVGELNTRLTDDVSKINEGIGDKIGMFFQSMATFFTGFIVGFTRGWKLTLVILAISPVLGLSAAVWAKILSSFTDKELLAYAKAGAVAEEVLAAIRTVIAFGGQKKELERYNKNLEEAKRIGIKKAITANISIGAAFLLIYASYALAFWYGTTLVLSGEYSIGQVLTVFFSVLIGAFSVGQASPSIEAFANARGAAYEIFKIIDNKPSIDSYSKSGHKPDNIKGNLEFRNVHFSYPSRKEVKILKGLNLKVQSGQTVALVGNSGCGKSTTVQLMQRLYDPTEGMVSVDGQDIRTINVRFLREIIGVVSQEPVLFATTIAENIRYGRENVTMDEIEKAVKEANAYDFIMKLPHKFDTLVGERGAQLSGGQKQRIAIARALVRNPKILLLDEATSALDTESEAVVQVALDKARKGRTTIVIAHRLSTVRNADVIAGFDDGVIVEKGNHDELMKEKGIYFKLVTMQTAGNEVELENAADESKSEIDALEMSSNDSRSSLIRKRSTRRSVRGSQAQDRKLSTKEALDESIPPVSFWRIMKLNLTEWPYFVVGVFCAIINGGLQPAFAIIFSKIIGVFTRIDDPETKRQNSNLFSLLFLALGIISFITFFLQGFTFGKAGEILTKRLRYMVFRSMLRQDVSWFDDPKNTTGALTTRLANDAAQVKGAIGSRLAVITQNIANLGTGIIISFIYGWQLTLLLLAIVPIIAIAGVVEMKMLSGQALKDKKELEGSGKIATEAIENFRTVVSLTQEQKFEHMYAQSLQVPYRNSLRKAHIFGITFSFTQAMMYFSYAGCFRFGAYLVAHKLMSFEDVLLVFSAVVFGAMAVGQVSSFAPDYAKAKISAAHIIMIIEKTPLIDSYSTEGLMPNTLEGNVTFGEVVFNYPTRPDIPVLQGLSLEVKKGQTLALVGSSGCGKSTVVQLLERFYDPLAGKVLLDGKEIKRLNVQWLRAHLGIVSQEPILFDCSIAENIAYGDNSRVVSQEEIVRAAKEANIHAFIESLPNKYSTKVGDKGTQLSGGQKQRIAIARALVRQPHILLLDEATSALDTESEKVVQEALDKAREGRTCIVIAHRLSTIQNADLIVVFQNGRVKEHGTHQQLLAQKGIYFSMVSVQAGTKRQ

As to `N#Cc1ccc(C(=O)Nc2ccc(F)c([C@@]3(CF)N=C(N)O[C@@H]4CC(F)(F)C[C@@H]43)c2)nc1` [Example 3, 5-Cyano-pyridine-2-carboxylic acid [(S)-3-((1R,2R)-2-amino-6,6-difluoro-4-fluoromethyl-4,4a,5,6,7,7a-hexahydro-cyclopenta[e][1,3]oxazin-4-yl)-4-fluoro-phenyl]-amide], the IC50 is 1.5 nM at BACE1 and over 10000 nM at CYP3A4. Moreover, the efflux ratio at 2 h in data set [1] was under 3. In data set [2], the “GSH human (glutathione adduct formation)” value was “NF”. The in vivo effect result in “in vivo effect” was “A (less than 50% of control @ 30 mg/kg p.o.)”.
Take `NC1=N[C@](CF)(c2cc(NC(=O)c3ccc(F)cn3)ccc2F)[C@H]2CC(F)(F)C[C@H]2O1` [Example 7, 5-Fluoro-pyridine-2-carboxylic acid [(S)-3-((1R,2R)-2-amino-6,6-difluoro-4-fluoromethyl-4,4a,5,6,7,7a-hexahydro-cyclopenta[e][1,3]oxazin-4-yl)-4-fluoro-phenyl]-amide]: the IC50 at BACE1 is 16.6 nM; at CYP3A4 it was over 10000 nM. For the same compound, the efflux ratio at 2 h in data set [1] was under 3. The “GSH human (glutathione adduct formation)” value in data set [2] is recorded as “NF”. For the same compound, in the data set “in vivo effect”, the in vivo effect result is given as “A (less than 50% of control @ 30 mg/kg p.o.)”.
With `NC1=N[C@](CF)(c2cc(NC(=O)c3cnc(C(F)F)cn3)ccc2F)[C@H]2CC(F)(F)C[C@H]2O1` [Example 24, 5-Difluoromethyl-pyrazine-2-carboxylic acid [(S)-3-((1R,2R)-2-amino-6,6-difluoro-4-fluoromethyl-4,4a,5,6,7,7a-hexahydro-cyclopenta[e][1,3]oxazin-4-yl)-4-fluoro-phenyl]-amide], the IC50 was 7.9 nM on BACE1 and over 10000 nM at CYP3A4. The efflux ratio at 2 h in data set [1] is under 3. In data set [2], the “GSH human (glutathione adduct formation)” value was “NF”. In the data set “in vivo effect”, the in vivo effect entry is listed as “A (less than 50% of control @ 30 mg/kg p.o.)”.
As to `N#Cc1ccc(C(=O)Nc2ccc(F)c([C@@]3(C(F)F)N=C(N)O[C@@H]4CC(F)(F)C[C@@H]43)c2)nc1` [Example 36, 5-Cyano-pyridine-2-carboxylic acid [(S)-3-((1R,2R)-2-amino-4-difluoromethyl-6,6-difluoro-4,4a,5,6,7,7a-hexahydro-cyclopenta[e][1,3]oxazin-4-yl)-4-fluoro-phenyl]-amide], the IC50 at BACE1 was 14.5 nM; at CYP3A4, over 10000 nM. In addition, the efflux ratio at 2 h in data set [1] was under 3. Also, the “GSH human (glutathione adduct formation)” value in data set [2] is “NF”. Further, in “in vivo effect”, the in vivo effect result is “A (less than 50% of control @ 30 mg/kg p.o.)”.
Taken in the same sequence, the figures for `COc1cnc(C(=O)Nc2ccc(F)c([C@@]3(C(F)F)N=C(N)O[C@@H]4CC(F)(F)C[C@@H]43)c2)cn1` [Example 42, 5-Methoxy-pyrazine-2-carboxylic acid [(S)-3-((1R,2R)-2-amino-4-difluoromethyl-6,6-difluoro-4,4a,5,6,7,7a-hexahydro-cyclopenta[e][1,3]oxazin-4-yl)-4-fluoro-phenyl]-amide] were 30 nM, over 10000 nM, under 3, “NF” and “A (less than 50% of control @ 30 mg/kg p.o.)”.

Broadly, the IC50 is the concentration at which inhibition is half-maximal.
